US6287794A, “Factor Vlla inhibitors” (Aventis Pharma Deutschland GmbH, priority 1998, dated 2001)
Starred links: 1 amine or outer side, 2 acyl side, 3 side chain; linkers in the order of their positions; H or OH if unused. Non-standard residues stand in square brackets, D forms with d. Residues, ends and D or L forms follow the SMILES beside them. *: point of attachment. dPhe(4-guanidino) = N=C(N)Nc1ccc(C[C@@H](N)C(=O)O)cc1; Phe(4-NO2) = N[C@@H](Cc1ccc([N+](=O)[O-])cc1)C(=O)O; Phe(4-guanidino) = N=C(N)Nc1ccc(C[C@H](N)C(=O)O)cc1; Phe(4-amidino) = N=C(N)c1ccc(C[C@H](N)C(=O)O)cc1; Orn(acetimidoyl) = CC(=N)NCCC[C@H](N)C(=O)O; d(hArg) = N=C(N)NCCCC[C@@H](N)C(=O)O; Cha = N[C@@H](CC1CCCCC1)C(=O)O; Agb = N=C(N)NCC[C@H](N)C(=O)O; Phg = N[C@H](C(=O)O)c1ccccc1; Dab = NCC[C@H](N)C(=O)O; CO = O=C([*:1])[*:2]; Alloc = C=CCOC(=O)*; Bn = c1ccc(C*)cc1; NHAllyl = C=CCN*

Target: T1, human factor VIIa and TF (Homo sapiens, UniProt P08709)
T1 construct: human factor VIIa and TF
Assay: Determination of Ki for FVIIa inhibition (chromogenic assay, substrate S-2288)
Assay type: biochemical
Conditions: human factor VIIa 5 nM and TF 10 nM, S-2288 500 μM, 25° C., 15 minute preincubation, pH 8.15; read-out: Factor VIIa inhibitory activities Ki
Procedure: The inhibitory activity (Ki) of each compound towards […] activity was determined using a chromogenic assay essentially as described previously. J. A. Ostrem, F. Al-Obeidi, P. Safar, A. Safarova, S. K. Stringer, M. Patek, M. T. Cross, J. Spoonamore, J. C. LoCascio, P. Kasireddy, D. S. Thorpe, N. Sepetov, M. Lebi, P. Wildgoose, P. Strop, "Discovery of a novel, potent, and specific family of factor Xa inhibitors via combinatorial chemistry". Biochemistry 37 (1998) 1053-1059. Kinetic assays were conducted at 25° C. in half-area microtiter plates (Costar Corp., Cambridge, Mass.) using a kinetic plate reader (Molecular Devices Spectramax 250). A typical assay consisted of 25 μl of human factor VIIa and TF (5 nM and 10 nM, respective final concentration) combined with 40 μl of inhibitor dilutions in 10% DMSO/TBS-PEG buffer (50 mM Tris, 15 mM NaCl, 5 mM CaCl2; 0.05% PEG 8k, pH 8.15). Following a 15 minute preincubation period, the assay was initiated by the addition of 35 μl of the chromogenic substrate S-2288 (D-Ile-Pro-Arg-pNA, Pharmacia Hepar Inc, 500 μM final concentration.). The apparent inhibition constants were calculated from the slope of the progress curves during the linear part of the time course, typically between 1 and 5 min following addition of substrate to the assay. The true Ki was subsequently determined for each compound by correcting for substrate concentration (S) and the Km using the formula Ki=Ki app/(1+(S)/Km). I. H. Segal, Enzyme Kinetics, pp 100-125 (John Wiley & Sons, N.Y., 1975).

T1 sequence (P08709 213-466 limits assumed): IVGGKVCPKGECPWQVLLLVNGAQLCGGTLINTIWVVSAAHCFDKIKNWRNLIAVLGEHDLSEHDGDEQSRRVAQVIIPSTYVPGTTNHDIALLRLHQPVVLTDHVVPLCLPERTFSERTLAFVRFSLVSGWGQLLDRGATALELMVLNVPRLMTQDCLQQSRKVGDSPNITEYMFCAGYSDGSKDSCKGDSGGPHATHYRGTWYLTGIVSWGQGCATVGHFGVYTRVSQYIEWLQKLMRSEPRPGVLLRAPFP
T1 sequence (P08709 61-212 limits assumed): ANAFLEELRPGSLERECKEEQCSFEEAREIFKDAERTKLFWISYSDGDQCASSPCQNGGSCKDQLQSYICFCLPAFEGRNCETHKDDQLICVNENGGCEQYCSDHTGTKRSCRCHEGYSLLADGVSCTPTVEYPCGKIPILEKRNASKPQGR
T1 sequence (P13726 33-295 partner): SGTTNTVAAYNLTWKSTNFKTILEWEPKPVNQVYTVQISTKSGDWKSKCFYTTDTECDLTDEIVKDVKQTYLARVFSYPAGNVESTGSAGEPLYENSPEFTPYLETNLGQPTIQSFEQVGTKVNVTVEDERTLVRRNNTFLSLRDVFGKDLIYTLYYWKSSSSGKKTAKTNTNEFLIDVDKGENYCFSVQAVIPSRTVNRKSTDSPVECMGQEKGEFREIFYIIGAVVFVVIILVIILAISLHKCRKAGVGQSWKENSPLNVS

SMILES	Ki [nM]
C=CCOC(=O)N[C@@H](Cc1ccc(C(=N)N)cc1)C(=O)N[C@@H](CCC(=O)O)C(=O)N[C@@H](CSC)C(=O)N[C@@H](CC1CCCCC1)C(N)=O [Alloc--pAph--Glu--Cys(Me)--Cha--NH2] (Alloc-[Phe(4-amidino)]EC(Me)[Cha]-NH2)	200
C=CCOC(=O)N[C@@H](Cc1ccc(C(=N)N)cc1)C(=O)N[C@@H](CCC(=O)O)C(=O)N[C@H](CCCNC(=N)N)C(=O)N[C@@H](CC1CCCCC1)C(N)=O [Alloc--pAph--Glu--D--Arg--Cha--NH2] (Alloc-[Phe(4-amidino)]E[dR][Cha]-NH2)	12000
C=CCOC(=O)N[C@@H](Cc1ccc(C(=N)N)cc1)C(=O)N[C@@H](CCC(=O)O)C(=O)N[C@H](CCCCNC(=N)N)C(=O)N[C@@H](CC1CCCCC1)C(N)=O [Alloc--pAph--Glu--D--Lys[--C(=NH)--NH2]--Cha--NH2] (Alloc-[Phe(4-amidino)]E[d(hArg)][Cha]-NH2)	22000
C=CCOC(=O)N[C@@H](Cc1ccc(C(=N)N)cc1)C(=O)N[C@@H](CCC(=O)O)C(=O)N[C@H](Cc1ccc(NC(=N)N)cc1)C(=O)N[C@@H](CC1CCCCC1)C(N)=O [Alloc--pAph--Glu--D--Phe(4-guanidino)--Cha--NH2] (Alloc-[Phe(4-amidino)]E[dPhe(4-guanidino)][Cha]-NH2)	11300
C=CCOC(=O)NCC[C@H](NC(=O)[C@H](CCC(=O)O)NC(=O)[C@H](Cc1ccc(C(=N)N)cc1)NC(=O)OCC=C)C(=O)N[C@@H](CC1CCCCC1)C(N)=O [Alloc--pAph--Glu--Dab(Alloc)--Cha--NH2] (Alloc-[Phe(4-amidino)]E[Dab](Alloc)[Cha]-NH2)	150
C=CCOC(=O)N[C@@H](Cc1ccc(C(=N)N)cc1)C(=O)N[C@@H](CCC(=O)O)C(=O)N[C@@H](CCN)C(=O)N[C@@H](CC1CCCCC1)C(N)=O [Alloc--pAph--Glu--Dab--Cha--NH2, Alloc-pAph-Glu-Dab-Cha-NH2] (Alloc-[Phe(4-amidino)]E[Dab][Cha]-NH2)	55
C=CCOC(=O)N[C@@H](Cc1ccc(C(=N)N)cc1)C(=O)N[C@@H](CCC(=O)O)C(=O)N[C@@H](CCN)C(=O)NCCc1ccccc1 [Alloc--pAph--Glu--Dab--NH--(CH2)2 --Ph, Alloc-pAph-Glu-Dab-NH--CH2 --CH2 --Ph]	380
C=CCOC(=O)N[C@@H](Cc1ccc(C(=N)N)cc1)C(=O)N[C@@H](CCC(=O)O)C(=O)N[C@@H](CCNC(C)=N)C(=O)N[C@@H](CC1CCCCC1)C(N)=O [Alloc--pAph--Glu--Dab[--C(=NH)--CH3]--Cha--NH2]	190
C=CCOC(=O)N[C@@H](Cc1ccc(C(=N)N)cc1)C(=O)N[C@@H](CCC(=O)O)C(=O)N[C@@H](CCNC(=N)N)C(=O)N[C@@H](CC1CCCCC1)C(N)=O [Alloc--pAph--Glu--Dab[--C(=NH)--NH2]--Cha--NH2] (Alloc-[Phe(4-amidino)]E[Agb][Cha]-NH2)	12
C=CCOC(=O)N[C@@H](Cc1ccc(C(=N)N)cc1)C(=O)N[C@@H](CCC(=O)O)C(=O)N[C@@H](CNC(=N)N)C(N)=O [Alloc--pAph--Glu--Dap[--C(=NH)--NH2]--NH2]	260
C=CCOC(=O)N[C@@H](Cc1ccc(C(=N)N)cc1)C(=O)N[C@@H](CCC(=O)O)C(=O)N[C@@H](CNC(=N)N)C(=O)N[C@@H](Cc1ccc(C2(c3ccccc3)SCCS2)cc1)C(N)=O [Alloc--pAph--Glu--Dap[--C(=NH)--NH2]--Phe[4-C(--S--(CH2)2 --S--)--Ph]--NH2]	15
C=CCOC(=O)N[C@@H](Cc1ccc(C(=N)N)cc1)C(=O)N[C@@H](CCC(=O)O)C(=O)N[C@@H](CCC(N)=O)C(N)=O [Alloc--pAph--Glu--Gln--NH2]	1500
C=CCOC(=O)N[C@@H](Cc1ccc(C(=N)N)cc1)C(=O)N[C@@H](CCC(=O)O)C(=O)NCC(=O)N[C@@H](CC1CCCCC1)C(N)=O [Alloc--pAph--Glu--Gly--Cha--NH2, Alloc-pAph-Glu-Gly-Cha-NH2] (Alloc-[Phe(4-amidino)]EG[Cha]-NH2)	120
C=CCOC(=O)N[C@@H](Cc1ccc(C(=N)N)cc1)C(=O)N[C@@H](CCC(=O)O)C(=O)N[C@@H](Cc1c[nH]cn1)C(=O)N[C@@H](CC1CCCCC1)C(N)=O [Alloc--pAph--Glu--His--Cha--NH2] (Alloc-[Phe(4-amidino)]EH[Cha]-NH2)	140
C=CCOC(=O)N[C@@H](Cc1ccc(C(=N)N)cc1)C(=O)N[C@@H](CCC(=O)O)C(=O)N[C@@H](CCSC)C(=O)N[C@@H](CC1CCCCC1)C(N)=O [Alloc--pAph--Glu--Met--Cha--NH2] (Alloc-[Phe(4-amidino)]EM[Cha]-NH2)	110
C=CCOC(=O)N[C@@H](Cc1ccc(C(=N)N)cc1)C(=O)N[C@@H](CCC(=O)O)C(=O)N[C@@H](CCCN)C(N)=O [Alloc--pAph--Glu--Orn--NH2]	6200
C=CCOC(=O)N[C@@H](Cc1ccc(C(=N)N)cc1)C(=O)N[C@@H](CCC(=O)O)C(=O)N[C@@H](CCCNC(C)=N)C(=O)N[C@@H](CC1CCCCC1)C(N)=O [Alloc--pAph--Glu--Orn[--C(=NH)--CH3]--Cha--NH2] (Alloc-[Phe(4-amidino)]E[Orn(acetimidoyl)][Cha]-NH2)	130
C=CCOC(=O)N[C@@H](Cc1ccc(C(=N)N)cc1)C(=O)N[C@@H](CCC(=O)O)C(=O)N[C@@H](Cc1ccc([N+](=O)[O-])cc1)C(=O)N[C@@H](CC1CCCCC1)C(N)=O [Alloc--pAph--Glu--Phe(4-NO2)--Cha--NH2] (Alloc-[Phe(4-amidino)]E[Phe(4-NO2)][Cha]-NH2)	46
C=CCOC(=O)N[C@@H](Cc1ccc(C(=N)N)cc1)C(=O)N[C@@H](CCC(=O)O)C(=O)N[C@H](C(=O)N[C@@H](CC1CCCCC1)C(N)=O)c1ccccc1 [Alloc--pAph--Glu--Phg--Cha--NH2] (Alloc-[Phe(4-amidino)]E[Phg][Cha]-NH2)	17
C=CCOC(=O)N[C@@H](Cc1ccc(C(=N)N)cc1)C(=O)N[C@@H](CCC(=O)O)C(=O)N[C@H](C(=O)N[C@@H](CC1CCCCC1)C(N)=O)[C@@H](C)OCc1ccccc1 [Alloc--pAph--Glu--Thr(Bzl)--Cha--NH2] (Alloc-[Phe(4-amidino)]ET(Bn)[Cha]-NH2)	19
C=CCOC(=O)N[C@@H](Cc1ccc(C(=N)N)cc1)C(=O)N[C@@H](CCC(=O)O)C(=O)N[C@@H](Cc1c[nH]c2ccccc12)C(=O)N[C@@H](CC1CCCCC1)C(N)=O [Alloc--pAph--Glu--Trp--Cha--NH2] (Alloc-[Phe(4-amidino)]EW[Cha]-NH2)	17
C=CCOC(=O)N[C@@H](Cc1ccc(C(=N)N)cc1)C(=O)N[C@@H](CCC(=O)O)C(=O)N[C@@H](CC(=N)N)C(=O)N[C@@H](CC1CCCCC1)C(N)=O [Alloc-pAph-Glu-Ala[3-C(=NH)--NH2 ]-Cha-NH2]	30
C=CCOC(=O)N[C@@H](Cc1ccc(C(=N)N)cc1)C(=O)N[C@@H](CCC(=O)O)C(=O)N[C@@H](CNC(C)=N)C(=O)N[C@@H](CC1CCCCC1)C(N)=O [Alloc-pAph-Glu-Dap[--C(=NH)--CH3 ]-Cha-NH2]	110
C=CCOC(=O)N[C@@H](Cc1ccc(C(=N)N)cc1)C(=O)N[C@@H](CCC(=O)O)C(=O)N[C@@H](Cc1ccc(NC(=N)N)cc1)C(=O)N[C@@H](CC1CCCCC1)C(N)=O [Alloc-pAph-Glu-Phe(4-guanidino)-Cha-NH2] (Alloc-[Phe(4-amidino)]E[Phe(4-guanidino)][Cha]-NH2)	120
C=CCOC(=O)N[C@@H](Cc1ccc(C(=N)N)cc1)C(=O)N[C@@H](CCC(=O)O)C(=O)N[C@H](C(=O)NCCC(c1ccccc1)c1ccccc1)[C@@H](C)OCc1ccccc1 [Alloc-pAph-Glu-Thr(Bzl)-NH--CH2 --CH2 --CH(Ph)2]	170
C=CCNC(=O)N[C@@H](Cc1ccc(C(=N)N)cc1)C(=O)N[C@@H](CCC(=O)O)C(=O)N[C@@H](CCCNC(=N)N)C(=O)N[C@@H](CC1CCCCC1)C(N)=O [allyl-NH--C(O)-pAph-Glu-Arg-Cha-NH2] ({NHAllyl-CO}-[Phe(4-amidino)]ER[Cha]-NH2)	42
